# Measured values: US10921257B2, “Method and system of pesticide detection using SERS” (priority 2016, dated 2021)
# Legend:
# apple = assay: SERS depth mapping of pesticide and AuNPs penetration into apples (Example 2); details: 100 mg/L
# Description: Organic apples were carefully hand washed with ultrapure water for 3 min and air-dried before experiment to remove surface contaminants. Then a 5 μL aliquot from a 100 mg/L solution of each pesticide was pipetted onto the apple surface. After air-drying the pesticides, apple peels with ˜2.0×2.0 cm^2 area were cut from each treated apple using a sharp knife. To determine pesticide penetration with penetrative AuNPs, any interference caused by pesticide residues on the apple surface were removed by washing. Two different washing methods were investigated using either an acetic acid- or NaHCO3-containing solution. Each peel was immersed into 20 mL of either a 5% acetic acid or a 1% NaHCO3 solution for different times and gently rinsed with 200 mL of deionized water for 10 s, respectively. All washed samples were air-dried at room temperature for 10 min before being treated with AuNPs. After drying AuNPs for 1 h, SERS detection was performed on that area to evaluate washing effects. Ten discrete locations were randomly chosen on each apple peel sample and scanned. Similar samples were prepared without either washing method and were scanned as above for comparisons.
# Following drying, the surface residues from each applied pesticide were washed off using either the NaHCO3 or acetic acid solution and a 5 μL aliquot of the 250 mg/L AuNPs solution was added as described above. After 1 h of drying, SERS depth mapping images were obtained using the confocal Raman instrument.
# A DXR Raman microscope (Thermo Fisher Scientific, Madison, Wis., USA) with a 780 nm laser and a 20× long distance microscope objective was used in this study. Each sample was scanned from 400 to 2000 cm^−1 for a 2 s exposure time. […] Ten discrete locations were randomly chosen on each sample for analysis. For penetration studies, SERS depth mapping images were obtained using a 50 μm pinhole aperture and 1 mW laser power to control the confocal depths using a scanning depth of 300 μm. […] The step size of the depth mapping was 20 μm and one image contained 75 scanning spots. Raman images were integrated based on the characteristic peaks in the pesticide spectra using the Atlμs Function in the OMINCS software (Thermo Fisher Scientific). […] The differences among results were calculated using an analysis of variance (ANOVA) and a post hoc Duncan test with a confidence level of 95%.
# grape = assay: SERS depth mapping of pesticide and AuNPs penetration into grapes (Example 2); details: 100 mg/L
# Description: (§1) Organic grapes and spinach leaves were carefully hand washed as described above for apples before experiment to remove surface contaminants. In order to study pesticide penetration in grapes, the same two washing methods were used as presented above for apples. Grapes treated with each pesticides solution (100 mg/L) were washed with either a 5% acetic acid or 1% NaHCO3 solution. Washing effects were evaluated using the SERS methods and the penetration behaviors of each pesticide were monitored as for apple above. Pesticides penetration experiments on spinach leaves were carried out as described above for apple and grape.
# (§2) A DXR Raman microscope (Thermo Fisher Scientific, Madison, Wis., USA) with a 780 nm laser and a 20× long distance microscope objective was used in this study. Each sample was scanned from 400 to 2000 cm^−1 for a 2 s exposure time. For measuring pesticides on both gold slides and fresh produce surfaces, Raman mapping was carried out using a 50 μm slit aperture and 5 mW laser power to maximize the signals. Ten discrete locations were randomly chosen on each sample for analysis. For penetration studies, SERS depth mapping images were obtained using a 50 μm pinhole aperture and 1 mW laser power to control the confocal depths using a scanning depth of 300 μm. Each depth scanning vertical to produce surface was randomly selected in apple peel, grape peel or spinach leaf with an area of 100 μm×300 μm. The step size of the depth mapping was 20 μm and one image contained 75 scanning spots. Raman images were integrated based on the characteristic peaks in the pesticide spectra using the Atlμs Function in the OMINCS software (Thermo Fisher Scientific). Statistical analysis was conducted using SPSS Statistics 22 software (IBM Corporation, Armonk, N.Y., USA). The differences among results were calculated using an analysis of variance (ANOVA) and a post hoc Duncan test with a confidence level of 95%.
# spinach leaves [1] = assay: SERS depth mapping of pesticide and AuNPs penetration into spinach leaves (Example 1); details: 20 ppm
# Description: These leaves were carefully washed with ultrapure water and dried before experimentation. […] A volume of 50 μL of each solution was then mixed with 50 μL of a 250 ppm 50 nm AuNPs solution for 1 min. at room temperature to ensure complete pesticide complexation with AuNPs through Au-thiol bond. 5 μL of each of the pre-prepared pesticide solution were then pipetted onto spinach leaves situated on a glass slide and air-dried in a fume hood for 30 min. […] All controls were air-dried in a fume hood as above. For evaluation of feasibility of Raman detection of pesticides on spinach leaves, 5 μL of the pre-prepared pesticide solution and AuNPs solution without pesticide were also dropped onto a gold slide and dried for 30 min in a hood for comparisons. Raman spectra were collected individually for all treatments.
# After 1 h, bright field light scattering images and SERS mapping images were collected from all samples.
# In order to remove any interference caused by pesticide residues on the spinach leaf surface, different washing methods were investigated. […] Then each leaf was immersed into 20 mL of deionized water or 20 mL of a 10 mg/mL of NaHCO3 solution. For the water washing method, each leaf was submerged into water for either 10 or 60 min. For the NaHCO3 washing method, each leaf was submerged into the NaHCO3 solution for 30, 60, 90, or 120 s and then gently rinsed with 500 mL of deionized water for 30 s, respectively. All washed leaf samples were air-dried at room temperature for 30 min before being treated with AuNPs. […]
# After 1 h for drying, SERS depth mapping images were obtained using the confocal Raman instrument. Similar samples without washing were likewise measured for comparison purposes.
# To study accurate systemic pesticide penetration, different washing methods were also used to remove surface thiabendazole residues. […] Surface thiabendazole residues were then analyzed by pipetting 5 μL of a 250 ppm AuNP solution onto the same leaf area where thiabendazole had been placed prior to washing and determining SERS depth mapping images by Raman instrument as before. […]
# spinach leaves [2] = assay: SERS depth mapping of pesticide and AuNPs penetration into spinach leaves (Example 2); details: 100 mg/L
# Description: as §1, §2
# live basil leaves = assay: SERS depth mapping of pesticide and AuNPs penetration into live basil leaves (Example 3)
# Description: (§3) A 5 μL aliquot of the mixture was pipetted onto harvested leaves or onto the live leaves on the plant. After air drying for 30 min, SERS depth mapping images were obtained using a confocal Raman instrument as detailed below.
# For the study of pesticide penetration into live basil leaves, 36 intact leaves (approximately 0.2 g per leaf) were selected from six live plants as the experimental target (6 leaves per plant) and carefully rinsed with 450 mL ultrapure water for 30 s and air-dried before the experiment to remove surface contaminants like dust. After rinsing, the clean leaves were used to study of pesticide penetration. […] Some of the pesticides might penetrate into leaves from the surface during the periods. After pesticide penetrated into leaves for different time periods, ultrapure water with flow rate of 15 mL/s was utilized to gently rinse the surface of leaves (Step 2). Different rinsing times were then investigated to complete removal of each pesticide residue on the surface. After rinsing of surface pesticide residues, all leaf samples were air-dried at room temperature for 30 min. […] The video camera in the Raman microscope was used to record the position on the leaves and help to find the same area for AuNPs deposition. After AuNPs treatment for drying 30 min, SERS detection was performed on that area using the confocal Raman instrument. Each treatment was performed twice.
# For penetration studies, SERS depth mapping images were obtained using a 50 μm pinhole aperture and 3 mW laser power to control the confocal depth using a scanning depth of 300 μm. Each depth area (100 μm×300 μm) was chosen from the treated spot on the leaf distant from a gland because the gland is the cavity, not a flat surface. The step size of the depth mapping was 20 μm and one image contained 75 scanning spots. Raman images were integrated based on the characteristic peaks in the pesticide spectra using the Atlμs Function in the OMINCS software (Thermo Fisher Scientific). There was one spot on each leaf and one depth area was selected from each spot. For each pesticide depth mapping experiment, there were six duplicates with six leaves coming from three different plants (2 leaves from each plant).
# Pesticide penetration was investigated using both intact and damaged leaves on live plants. Damaged leaves were prepared using a sharp knife to scratch the top surface of intact leaves. Each of the damaged leaves had 20 scrapes on each leaf and the distance between each scrape is 0.2 cm.
# harvested basil leaves = assay: SERS depth mapping of pesticide and AuNPs penetration into harvested basil leaves (Example 3); details: 10 mg/L
# Description: as §3
# For the study of the pesticides penetration on harvested basil leaves, 36 intact leaves (0.2 g per leaf) were first cut off from petiole on live plants using a sharp knife and carefully rinsed as described above for live leaves. During the experiment, the stems of each harvested leaf were immersed into water to keep the leaf fresh. To study pesticide penetration into harvested leaves, the same rinsing method and pesticides penetration protocols were carried out as described above for live leaves.
# For penetration studies, SERS depth mapping images were obtained using a 50 μm pinhole aperture and 3 mW laser power to control the confocal depth using a scanning depth of 300 μm. Each depth area (100 μm×300 μm) was chosen from the treated spot on the leaf distant from a gland because the gland is the cavity, not a flat surface. The step size of the depth mapping was 20 μm and one image contained 75 scanning spots. […] The differences among results were calculated using an independent sample T-test or analysis of variance (ANOVA) and a post hoc Duncan test with a confidence level of 95%.
# [3] = 48 h exposure, surface residues washed off
compound,measurement,setting,value
"c1ccc2[nH]c(-c3cscn3)nc2c1 [thiabendazole, 2-(4-thiazolyl)-1H-benzimidazole]",Exposure time at which penetration was first observed,apple,30 min
same,Penetration depth,apple; 24 h,about 140 μm
same,Penetration depth,apple; [3],approximately 160 μm
same,Exposure time at which penetration was first apparent,grape,30 min
same,Penetration depth,grape; 24 h,about 36 μm
same,Penetration depth,grape; [3],about 55 μm
same,Earliest time of detecting pesticide inside leaves,spinach leaves [1]; surface residues washed off with NaHCO3,6 h
same,Penetration depth in depth mapping images with increasing exposure time,spinach leaves [1]; washed,approximately 150 μm
same,Penetration depth from scans parallel to leaf surface at different depths,"spinach leaves [1]; washed, 2 days exposure",approximately 210 μm
same,Exposure time at which pesticide was first detected,spinach leaves [2],30 min
same,Penetration depth,spinach leaves [2]; 30 min,100 μm
same,Penetration depth,spinach leaves [2]; 24 h,~160 μm
same,Penetration depth,spinach leaves [2]; [3],~220 μm
same,Exposure time at which penetration was first seen,"live basil leaves; 10 mg/L, live leaves",30 min
same,Penetration depth,"live basil leaves; 10 mg/L, live leaves, 48 h after exposure, surface rinsed",~225 μm
same,Penetration depth,live basil leaves; damaged (knife-scratched) leaves on live plants,80 μm
same,Penetration depth,live basil leaves; intact leaves on live plants,170 μm
same,Penetration depth,"live basil leaves; large (old, 45 days) leaves, 24 h exposure",165 μm
same,Penetration depth,"live basil leaves; small (young, 15 days) leaves, 24 h exposure",95 μm
same,Exposure time at which penetration was first seen,harvested basil leaves,30 min
same,Penetration depth,"harvested basil leaves; 48 h after exposure, surface rinsed",approximately 180 μm
"C/C(=N\C#N)N(C)Cc1ccc(Cl)nc1 [acetamiprid, (E)-N-[(6-chloro-3-pyridyl)methyl]-N′-cyano-N-methylethanimidamide]",Exposure time at which penetration was first observed,apple,30 min
same,Penetration depth,apple; [3],~140 μm
same,Exposure time at which penetration was first apparent,grape,30 min
same,Penetration depth,grape; [3],about 75 μm
same,Penetration depth,spinach leaves [2]; [3],90 μm
"COP(=S)(OC)SCN1C(=O)c2ccccc2C1=O [phosmet, O,O-dimethyl S-Phthalimido Methyl Phosphorodithioate]",Exposure time at which pesticide was first detected,apple,6 h
same,Penetration depth,apple; [3],~55 μm
same,Exposure time at which penetration was first observed,grape,48 h
same,Penetration depth,grape; [3],about 20 μm
same,Exposure time at which pesticide was first detected,spinach leaves [2],1440 min
same,Penetration depth,spinach leaves [2]; [3],70 μm
